Measurements published in ChEMBL document CHEMBL5465560, “Selectivity Literature for EUbOPEN Chemogenomic Library” (2024).

Tests used:
[1] = target: Maternal embryonic leucine zipper kinase (Homo sapiens) (UniProt Q14680); assay: Selectivity interaction (Kinase panel (DSF assay)) EUB0001559a MELK
[2] = target: Ribosomal protein S6 kinase alpha-2 (Homo sapiens) (UniProt Q15349); assay: Selectivity interaction (KinomeScan (DiscoverX)) EUB0000666a RPS6KA2; conditions: at 10 µM
[3] = target: Dual specificity tyrosine-phosphorylation-regulated kinase 1A (Homo sapiens, UniProt Q13627); assay: Selectivity interaction (KinomeScan (DiscoverX)) EUB0000666a DYRK1A; conditions: at 10 µM
[4] = target: Activin receptor type-1-like (Homo sapiens) (UniProt P37023); assay: Selectivity interaction (ProQinase) EUB0000171b ACVRL1
Activin receptor type-1-like (Homo sapiens), sequence (P37023 whole entry): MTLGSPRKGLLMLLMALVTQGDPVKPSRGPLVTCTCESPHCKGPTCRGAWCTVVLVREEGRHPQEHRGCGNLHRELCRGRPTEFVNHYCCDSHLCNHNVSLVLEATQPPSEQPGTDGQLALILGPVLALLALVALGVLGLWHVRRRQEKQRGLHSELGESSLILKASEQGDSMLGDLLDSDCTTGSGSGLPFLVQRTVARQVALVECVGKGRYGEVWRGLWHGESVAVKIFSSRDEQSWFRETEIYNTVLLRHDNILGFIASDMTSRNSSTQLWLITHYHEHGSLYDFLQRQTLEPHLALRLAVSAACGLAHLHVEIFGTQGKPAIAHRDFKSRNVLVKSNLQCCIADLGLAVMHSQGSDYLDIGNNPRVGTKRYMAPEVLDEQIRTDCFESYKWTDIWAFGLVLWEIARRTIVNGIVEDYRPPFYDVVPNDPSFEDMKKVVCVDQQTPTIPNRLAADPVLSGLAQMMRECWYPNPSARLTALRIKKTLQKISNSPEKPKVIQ

[5] = target: T1, Inhibitor of nuclear factor kappa-B kinase subunit beta (Homo sapiens) (UniProt O14920); assay: Selectivity interaction (ProQinase) EUB0000171b IKBKB
T1 sequence (whole entry): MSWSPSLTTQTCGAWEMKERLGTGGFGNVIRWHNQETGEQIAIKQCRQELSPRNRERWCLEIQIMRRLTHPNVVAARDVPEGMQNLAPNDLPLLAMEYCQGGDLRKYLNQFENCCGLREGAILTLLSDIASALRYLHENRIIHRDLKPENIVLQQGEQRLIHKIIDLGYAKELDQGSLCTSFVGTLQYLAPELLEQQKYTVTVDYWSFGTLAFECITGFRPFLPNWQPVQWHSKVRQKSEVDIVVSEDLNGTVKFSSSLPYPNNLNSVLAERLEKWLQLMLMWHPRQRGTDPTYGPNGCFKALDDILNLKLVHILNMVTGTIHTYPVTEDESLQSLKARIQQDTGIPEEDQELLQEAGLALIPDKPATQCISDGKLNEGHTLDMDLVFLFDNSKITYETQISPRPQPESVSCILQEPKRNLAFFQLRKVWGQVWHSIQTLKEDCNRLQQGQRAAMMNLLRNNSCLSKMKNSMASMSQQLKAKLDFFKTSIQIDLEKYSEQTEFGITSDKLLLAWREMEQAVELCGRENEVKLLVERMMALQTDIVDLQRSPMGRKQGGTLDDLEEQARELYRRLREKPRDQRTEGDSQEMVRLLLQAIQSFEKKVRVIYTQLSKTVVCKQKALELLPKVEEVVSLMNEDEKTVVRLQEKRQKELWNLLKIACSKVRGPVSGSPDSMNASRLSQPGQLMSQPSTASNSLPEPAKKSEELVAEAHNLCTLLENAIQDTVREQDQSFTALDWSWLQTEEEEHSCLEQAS

[6] = target: Leucine-rich repeat serine/threonine-protein kinase 2 (Homo sapiens, UniProt Q5S007); conditions: at 1 µM
Leucine-rich repeat serine/threonine-protein kinase 2, sequence (Q5S007 whole entry): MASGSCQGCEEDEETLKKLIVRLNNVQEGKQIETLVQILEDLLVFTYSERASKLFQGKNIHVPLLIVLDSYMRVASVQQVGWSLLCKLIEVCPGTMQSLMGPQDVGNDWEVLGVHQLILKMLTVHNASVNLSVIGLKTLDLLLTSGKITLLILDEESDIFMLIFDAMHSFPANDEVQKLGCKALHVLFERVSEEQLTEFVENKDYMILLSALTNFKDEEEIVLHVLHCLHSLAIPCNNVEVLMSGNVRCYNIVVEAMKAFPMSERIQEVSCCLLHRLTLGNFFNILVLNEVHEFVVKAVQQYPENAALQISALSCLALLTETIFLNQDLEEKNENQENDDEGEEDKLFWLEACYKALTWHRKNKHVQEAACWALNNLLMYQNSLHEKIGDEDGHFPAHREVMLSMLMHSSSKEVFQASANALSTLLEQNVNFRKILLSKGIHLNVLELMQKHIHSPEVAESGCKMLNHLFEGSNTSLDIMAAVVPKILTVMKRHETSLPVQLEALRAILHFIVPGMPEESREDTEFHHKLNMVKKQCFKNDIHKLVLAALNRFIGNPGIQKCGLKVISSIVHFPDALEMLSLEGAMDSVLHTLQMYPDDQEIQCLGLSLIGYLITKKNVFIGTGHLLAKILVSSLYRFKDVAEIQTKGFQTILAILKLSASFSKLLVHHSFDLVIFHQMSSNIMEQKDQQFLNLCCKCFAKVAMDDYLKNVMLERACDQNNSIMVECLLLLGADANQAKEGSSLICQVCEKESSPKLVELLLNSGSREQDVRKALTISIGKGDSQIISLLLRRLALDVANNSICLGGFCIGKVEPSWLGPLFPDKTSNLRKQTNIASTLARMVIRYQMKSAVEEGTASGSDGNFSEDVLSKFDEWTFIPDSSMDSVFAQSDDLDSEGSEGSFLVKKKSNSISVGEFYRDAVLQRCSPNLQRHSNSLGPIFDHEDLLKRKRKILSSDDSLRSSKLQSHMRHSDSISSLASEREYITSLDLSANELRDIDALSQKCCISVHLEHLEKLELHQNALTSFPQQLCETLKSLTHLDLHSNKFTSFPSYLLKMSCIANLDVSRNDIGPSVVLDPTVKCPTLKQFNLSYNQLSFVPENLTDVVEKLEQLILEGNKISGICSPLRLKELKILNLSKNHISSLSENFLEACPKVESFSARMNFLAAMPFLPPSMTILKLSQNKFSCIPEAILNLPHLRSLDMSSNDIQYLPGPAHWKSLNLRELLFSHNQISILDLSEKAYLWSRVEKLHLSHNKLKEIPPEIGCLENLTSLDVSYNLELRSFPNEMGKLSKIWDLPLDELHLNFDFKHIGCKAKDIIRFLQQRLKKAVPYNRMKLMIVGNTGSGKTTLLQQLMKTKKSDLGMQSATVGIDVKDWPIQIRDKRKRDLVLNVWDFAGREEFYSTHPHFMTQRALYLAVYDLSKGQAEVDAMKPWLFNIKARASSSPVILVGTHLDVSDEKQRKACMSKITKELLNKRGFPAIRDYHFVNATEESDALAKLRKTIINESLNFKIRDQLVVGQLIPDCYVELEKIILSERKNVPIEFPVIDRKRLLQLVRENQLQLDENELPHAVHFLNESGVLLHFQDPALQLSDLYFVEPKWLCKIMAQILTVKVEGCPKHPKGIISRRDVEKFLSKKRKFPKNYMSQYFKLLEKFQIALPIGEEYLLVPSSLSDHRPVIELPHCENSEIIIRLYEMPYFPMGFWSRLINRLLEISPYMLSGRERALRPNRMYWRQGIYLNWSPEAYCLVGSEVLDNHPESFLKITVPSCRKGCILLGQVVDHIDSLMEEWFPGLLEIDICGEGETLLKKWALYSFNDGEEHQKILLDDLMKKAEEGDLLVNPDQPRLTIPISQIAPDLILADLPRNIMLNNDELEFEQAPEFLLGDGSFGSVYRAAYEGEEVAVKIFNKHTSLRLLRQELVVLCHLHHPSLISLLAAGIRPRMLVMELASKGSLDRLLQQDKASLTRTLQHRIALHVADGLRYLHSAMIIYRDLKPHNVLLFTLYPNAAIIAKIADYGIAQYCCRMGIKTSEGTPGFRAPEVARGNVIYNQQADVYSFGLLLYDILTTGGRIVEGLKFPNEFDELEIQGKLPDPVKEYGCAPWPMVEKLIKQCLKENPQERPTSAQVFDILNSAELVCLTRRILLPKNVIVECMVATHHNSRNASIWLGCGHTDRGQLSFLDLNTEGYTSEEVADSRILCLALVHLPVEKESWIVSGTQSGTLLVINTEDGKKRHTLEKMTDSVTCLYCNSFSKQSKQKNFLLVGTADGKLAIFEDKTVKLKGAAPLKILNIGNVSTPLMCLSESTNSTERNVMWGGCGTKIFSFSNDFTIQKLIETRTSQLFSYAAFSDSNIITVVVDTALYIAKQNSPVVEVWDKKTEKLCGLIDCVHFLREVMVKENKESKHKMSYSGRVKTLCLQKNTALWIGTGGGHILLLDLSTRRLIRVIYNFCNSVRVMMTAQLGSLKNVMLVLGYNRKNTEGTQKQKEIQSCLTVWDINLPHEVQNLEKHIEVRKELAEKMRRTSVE

[7] = target: Phosphatidylinositol 4-phosphate 5-kinase type-1 alpha (Homo sapiens) (UniProt Q99755); assay: Selectivity interaction (KinomeScan (DiscoverX)) EUB0000618a PIP5K1A; conditions: at 10 µM
Phosphatidylinositol 4-phosphate 5-kinase type-1 alpha (Homo sapiens), sequence (Q99755 whole entry): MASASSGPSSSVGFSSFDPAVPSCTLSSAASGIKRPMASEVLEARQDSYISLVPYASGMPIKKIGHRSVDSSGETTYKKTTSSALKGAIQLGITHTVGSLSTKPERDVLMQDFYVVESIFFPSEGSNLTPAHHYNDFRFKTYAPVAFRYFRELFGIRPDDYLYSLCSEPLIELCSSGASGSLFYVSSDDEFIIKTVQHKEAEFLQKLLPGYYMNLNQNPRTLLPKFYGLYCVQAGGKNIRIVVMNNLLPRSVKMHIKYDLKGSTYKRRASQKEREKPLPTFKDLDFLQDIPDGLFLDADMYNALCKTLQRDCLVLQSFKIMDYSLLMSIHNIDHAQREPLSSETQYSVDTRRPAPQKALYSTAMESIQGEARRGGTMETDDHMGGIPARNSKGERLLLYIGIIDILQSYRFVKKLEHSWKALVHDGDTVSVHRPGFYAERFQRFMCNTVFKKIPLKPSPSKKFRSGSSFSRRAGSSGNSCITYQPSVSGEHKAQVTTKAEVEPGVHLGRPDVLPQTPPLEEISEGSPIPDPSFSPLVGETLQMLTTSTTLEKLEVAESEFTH

[8] = target: T2, Mitogen-activated protein kinase kinase kinase kinase 2 (Homo sapiens) (UniProt Q12851); assay: Selectivity interaction (Kinase panel (Invitrogen)) EUB0000639a MAP4K2; conditions: at 200 nM
T2 sequence (whole entry): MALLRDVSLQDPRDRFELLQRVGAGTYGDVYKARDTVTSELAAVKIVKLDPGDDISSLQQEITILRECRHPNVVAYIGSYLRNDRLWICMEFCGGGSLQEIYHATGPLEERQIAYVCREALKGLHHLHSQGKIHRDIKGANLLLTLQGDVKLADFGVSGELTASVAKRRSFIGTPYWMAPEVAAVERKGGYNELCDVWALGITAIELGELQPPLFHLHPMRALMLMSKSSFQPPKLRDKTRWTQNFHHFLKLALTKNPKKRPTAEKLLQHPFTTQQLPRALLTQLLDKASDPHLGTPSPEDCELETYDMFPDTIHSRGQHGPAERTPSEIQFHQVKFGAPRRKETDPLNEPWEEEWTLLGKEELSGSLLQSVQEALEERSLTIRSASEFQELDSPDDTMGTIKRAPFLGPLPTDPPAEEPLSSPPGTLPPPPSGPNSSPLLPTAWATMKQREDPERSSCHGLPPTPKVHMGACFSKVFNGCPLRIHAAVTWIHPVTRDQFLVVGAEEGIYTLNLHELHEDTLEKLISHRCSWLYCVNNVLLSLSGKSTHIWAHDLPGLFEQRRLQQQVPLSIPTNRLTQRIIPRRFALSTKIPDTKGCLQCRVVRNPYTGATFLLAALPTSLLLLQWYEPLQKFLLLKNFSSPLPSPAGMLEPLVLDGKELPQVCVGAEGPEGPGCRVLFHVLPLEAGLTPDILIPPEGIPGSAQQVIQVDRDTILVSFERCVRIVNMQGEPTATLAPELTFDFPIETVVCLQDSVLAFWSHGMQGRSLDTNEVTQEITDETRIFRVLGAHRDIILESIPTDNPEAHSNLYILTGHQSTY

[9] = target: 5'-AMP-activated protein kinase catalytic subunit alpha-2 (Homo sapiens) (UniProt P54646); assay: Selectivity interaction (ActivX KiNativ screen (kinase selectivity in THP-1 cell lysates)) EUB0000639a PRKAA2; assay type: subcellular; conditions: lysate, at 0.2 µM
5'-AMP-activated protein kinase catalytic subunit alpha-2 (Homo sapiens), sequence (P54646 whole entry, looked up): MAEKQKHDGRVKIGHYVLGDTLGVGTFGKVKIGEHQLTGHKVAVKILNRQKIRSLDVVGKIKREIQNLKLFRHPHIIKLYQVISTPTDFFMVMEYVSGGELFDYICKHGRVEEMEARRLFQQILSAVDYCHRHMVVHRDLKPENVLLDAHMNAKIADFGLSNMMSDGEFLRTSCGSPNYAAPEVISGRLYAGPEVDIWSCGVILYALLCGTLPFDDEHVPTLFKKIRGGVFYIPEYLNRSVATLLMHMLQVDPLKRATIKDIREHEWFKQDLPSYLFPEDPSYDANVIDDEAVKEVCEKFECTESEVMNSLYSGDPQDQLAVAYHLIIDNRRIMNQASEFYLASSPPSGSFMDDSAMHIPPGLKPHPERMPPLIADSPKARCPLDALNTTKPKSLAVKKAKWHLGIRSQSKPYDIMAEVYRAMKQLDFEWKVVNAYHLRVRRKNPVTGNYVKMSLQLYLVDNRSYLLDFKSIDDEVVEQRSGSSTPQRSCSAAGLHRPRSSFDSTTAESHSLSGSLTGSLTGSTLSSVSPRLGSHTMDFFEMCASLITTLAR

[10] = target: T3, Mitogen-activated protein kinase 12 (Homo sapiens) (UniProt P53778); assay: Selectivity interaction (KinomeScan (DiscoverX)) EUB0000092b MAPK12; conditions: at 10 µM
T3 sequence (whole entry): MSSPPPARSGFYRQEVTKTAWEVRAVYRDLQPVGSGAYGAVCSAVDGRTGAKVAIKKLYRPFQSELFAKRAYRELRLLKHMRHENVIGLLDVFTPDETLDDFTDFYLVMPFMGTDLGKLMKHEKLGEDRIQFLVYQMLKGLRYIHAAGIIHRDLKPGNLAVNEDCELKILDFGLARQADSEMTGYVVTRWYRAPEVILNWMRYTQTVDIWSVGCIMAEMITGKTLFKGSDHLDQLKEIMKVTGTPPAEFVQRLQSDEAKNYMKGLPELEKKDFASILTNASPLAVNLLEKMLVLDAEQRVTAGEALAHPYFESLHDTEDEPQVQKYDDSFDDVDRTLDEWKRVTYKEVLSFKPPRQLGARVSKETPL

Maternal embryonic leucine zipper kinase (Homo sapiens), sequence (Q14680 whole entry, looked up): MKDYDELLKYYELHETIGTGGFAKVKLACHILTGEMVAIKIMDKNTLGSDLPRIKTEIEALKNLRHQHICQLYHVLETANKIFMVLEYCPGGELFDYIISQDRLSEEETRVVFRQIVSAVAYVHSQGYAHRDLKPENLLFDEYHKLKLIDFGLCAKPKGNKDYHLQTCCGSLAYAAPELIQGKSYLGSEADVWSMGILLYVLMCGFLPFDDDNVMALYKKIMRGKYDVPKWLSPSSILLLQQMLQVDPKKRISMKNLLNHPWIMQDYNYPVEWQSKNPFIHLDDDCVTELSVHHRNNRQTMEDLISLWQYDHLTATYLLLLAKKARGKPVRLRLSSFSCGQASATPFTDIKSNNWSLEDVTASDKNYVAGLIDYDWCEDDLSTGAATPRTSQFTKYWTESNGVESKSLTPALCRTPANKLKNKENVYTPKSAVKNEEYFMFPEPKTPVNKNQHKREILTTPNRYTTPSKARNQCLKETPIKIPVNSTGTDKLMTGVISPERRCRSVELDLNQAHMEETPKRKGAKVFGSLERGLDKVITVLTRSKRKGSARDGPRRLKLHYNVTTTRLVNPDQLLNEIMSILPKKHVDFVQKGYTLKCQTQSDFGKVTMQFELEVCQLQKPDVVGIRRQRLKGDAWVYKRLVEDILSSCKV

CN(C(=O)c1cnn2cccnc12)c1cc2c(cc1N1CCOCC1)C(=O)N(C[C@@H](F)C(C)(C)O)C2
dTM [1]: -0.3 K

O=C(NOC[C@H](O)CO)c1ccc(F)c(F)c1Nc1ccc(I)cc1F
% of control [2]: 92%
% of control [3]: 100%

C=CC(=O)Nc1cccc(C(=O)Nc2ccc(Nc3cc(-c4[nH]c(SC)nc4C)ccn3)cc2)c1
% of control ([4]; at 1 µM): 74%
% of control ([4]; at 5 µM): 52%
% of control ([5]; at 1 µM): 77%
% of control ([5]; at 5 µM): 63%

N#Cc1cccc(-c2c[nH]c3ncnc(N4CCOCC4)c23)c1
% of control [6]: 43%

O[C@H]1CC[C@H](Nc2ncc3nc(Nc4c(F)cc(F)cc4F)n([C@H]4CCOC4)c3n2)CC1
% of control [7]: 93%

CC[C@@H]1[C@H](F)C(=O)N[C@@H]1COc1nccc2cc(C(N)=O)c(OC)cc12 [ZIMLOVISERTIB]
% of inhibition [8]: 2.66%
% of inhibition [9]: -4.3%

CCC(=O)N1CCN(c2ccc(-n3c(=O)ccc4cnc5ccc(-c6cnc7ccccc7c6)cc5c43)cc2C(F)(F)F)CC1
% of control [10]: 71%
